Data as given in ChEMBL document CHEMBL5523718, “Design, synthesis, molecular modeling, in vitro and in vivo biological evaluation of potent anthranilamide derivatives as dual P-glycoprotein and CYP3A4 inhibitors” (Eur J Med Chem, 2024).
pEC50, pIC50: −log10 of the molar value. Values after ≈ are worked out from the molar mass of the structure shown. Values joined by “and” are separate entries in the source; they are usually repeats but may differ in a detail not shown here. Equal values may be shown once.

How the values were obtained:
[1] = target: ATP-dependent translocase ABCB1 (Homo sapiens, UniProt P08183); test: Inhibition of P-gp in human MES-SA/Dx5 cells; format: cell-based
Cytochrome P450 3A4 [2] = target: T1, Cytochrome P450 3A4 (Homo sapiens, UniProt P08684); test: Inhibition of CYP3A4 in human liver using luciferin-IPA as substrate microsome preincubated with compound for 10 mins followed by NADPH addition and measured after 5 mins; format: ADME, microsomes
MES-SA/Dx5 = test: Cytotoxicity against human MES-SA/Dx5 cells at 1.28 uM incubated for 3 days by MTT assay relative to control; format: functional; conditions: time 3 day
Cytochrome P450 3A4 [3] = target: T1, Cytochrome P450 3A4; test: Inhibition of CYP3A4 in human Hepatocyte using Luciferin-IPA as substrate; format: ADME, cell-based
[4] = Efflux ratio of apparent permeability across basolateral to apical side over apical to basolateral side in human Caco-2 cells; format: ADME, cell-based
[5] = Apparent permeability across apical to basolateral side in human Caco-2 cells assessed as drug recovery; format: ADME, cell-based; conditions: read-out: Drug recovery
[6] = Apparent permeability of compound across basolateral to apical side in human Caco-2 cells; format: ADME, cell-based
[7] = Apparent permeability of compound across apical to basolateral side in human Caco-2 cells; format: ADME, cell-based
[8] = Equilibrium solubility of compound in PBS at pH 7.4; format: physicochemical; conditions: for solubility: buffer
[9] = Apparent permeability across basolateral to apical side in human Caco-2 cells assessed as drug recovery; format: ADME, cell-based; conditions: read-out: Drug recovery

Sequence of ATP-dependent translocase ABCB1 (P08183 whole entry): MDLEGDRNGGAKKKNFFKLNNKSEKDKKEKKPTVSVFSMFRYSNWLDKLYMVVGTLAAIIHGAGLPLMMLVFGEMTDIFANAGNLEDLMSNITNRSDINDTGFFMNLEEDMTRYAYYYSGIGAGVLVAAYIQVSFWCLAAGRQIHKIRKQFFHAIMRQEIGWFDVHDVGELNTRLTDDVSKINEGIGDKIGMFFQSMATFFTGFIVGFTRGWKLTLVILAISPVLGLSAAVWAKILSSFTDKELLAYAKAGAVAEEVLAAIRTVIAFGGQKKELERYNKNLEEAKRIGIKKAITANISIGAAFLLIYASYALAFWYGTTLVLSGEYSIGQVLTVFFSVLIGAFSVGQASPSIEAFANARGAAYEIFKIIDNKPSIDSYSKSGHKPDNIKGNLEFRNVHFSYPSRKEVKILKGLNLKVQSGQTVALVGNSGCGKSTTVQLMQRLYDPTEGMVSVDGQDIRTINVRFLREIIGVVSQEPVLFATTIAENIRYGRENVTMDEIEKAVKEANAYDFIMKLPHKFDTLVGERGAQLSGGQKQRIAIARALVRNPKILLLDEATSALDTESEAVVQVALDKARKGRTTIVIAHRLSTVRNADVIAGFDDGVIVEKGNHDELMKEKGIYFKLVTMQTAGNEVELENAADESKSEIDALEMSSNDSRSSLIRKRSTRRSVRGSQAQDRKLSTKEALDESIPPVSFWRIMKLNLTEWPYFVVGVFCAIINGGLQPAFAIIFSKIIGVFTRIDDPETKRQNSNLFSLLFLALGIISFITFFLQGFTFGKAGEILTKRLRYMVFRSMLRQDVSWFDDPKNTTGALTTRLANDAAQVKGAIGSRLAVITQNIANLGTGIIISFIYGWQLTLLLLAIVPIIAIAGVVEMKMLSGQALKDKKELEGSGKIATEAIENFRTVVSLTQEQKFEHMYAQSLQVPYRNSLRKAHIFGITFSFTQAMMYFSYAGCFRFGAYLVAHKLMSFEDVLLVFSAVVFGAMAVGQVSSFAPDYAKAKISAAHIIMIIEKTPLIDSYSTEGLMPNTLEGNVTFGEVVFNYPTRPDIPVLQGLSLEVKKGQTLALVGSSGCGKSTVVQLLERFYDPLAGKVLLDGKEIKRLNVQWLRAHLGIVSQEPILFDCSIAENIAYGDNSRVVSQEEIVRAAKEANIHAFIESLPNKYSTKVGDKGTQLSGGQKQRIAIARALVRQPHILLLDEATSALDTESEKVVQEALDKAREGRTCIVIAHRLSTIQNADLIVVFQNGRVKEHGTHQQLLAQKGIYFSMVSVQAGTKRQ
T1 sequence (P08684 whole entry): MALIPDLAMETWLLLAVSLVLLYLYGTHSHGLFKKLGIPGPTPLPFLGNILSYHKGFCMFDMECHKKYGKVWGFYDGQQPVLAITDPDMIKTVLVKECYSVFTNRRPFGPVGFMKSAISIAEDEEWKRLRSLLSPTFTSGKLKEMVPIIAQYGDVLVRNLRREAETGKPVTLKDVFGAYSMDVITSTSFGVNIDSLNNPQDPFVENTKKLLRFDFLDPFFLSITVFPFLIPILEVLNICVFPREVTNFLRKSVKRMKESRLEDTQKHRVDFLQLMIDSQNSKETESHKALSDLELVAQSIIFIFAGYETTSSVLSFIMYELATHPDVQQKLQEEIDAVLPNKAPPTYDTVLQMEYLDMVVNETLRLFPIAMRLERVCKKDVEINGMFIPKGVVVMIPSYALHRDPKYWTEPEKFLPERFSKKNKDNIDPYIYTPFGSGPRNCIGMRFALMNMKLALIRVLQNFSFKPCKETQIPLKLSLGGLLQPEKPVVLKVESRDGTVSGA

Row | pEC50 [1] | pIC50 (Cytochrome P450 3A4 [2]) | pIC50 (Cytochrome P450 3A4 [3]) | efflux ratio [4] | recovery [5] [%] | Papp B→A [6] [×10⁻⁶ cm/s] | Papp A→B [7] [×10⁻⁶ cm/s] | solubility [8] | recovery [9] [%] | solubility thermodynamic ([8]; PBS) [µM] | Ratio [4] | Papp [6] | SMILES | Activity (MES-SA/Dx5) [%]
1 | 7.54 | < 5.05 | – | – | – | – | – | – | – | – | – | – | COc1ccc(CN2CCN(c3ccc(NC(=O)c4cc(OC)c(OC)cc4NC(=O)c4cnc5ccccc5c4)cc3)CC2)cc1OC | 1
2 | 7.41 | 6.79 | 5.62 | – | – | – | – | – | – | – | – | – | COc1cc(NC(=O)c2cc(=O)c3ccccc3o2)c(C(=O)Nc2ccc(N3CCN(Cc4cccc(-n5ccnc5)c4)CC3)cc2)cc1OC | 0
3 | 7.72 | 5.73 | 5.21 | – | – | – | – | – | – | – | – | – | COc1cc(NC(=O)c2cnc3ccccc3c2)c(C(=O)Nc2ccc(N3CCN(Cc4ccc5c(cnn5C)c4)CC3)cc2)cc1OC | 6
4 | 6.66 | 6.53 | 5.87 | – | – | – | – | – | – | – | – | – | COc1cc(NC(=O)c2cc(=O)c3ccccc3o2)c(C(=O)Nc2ccc(C3CCN(Cc4cccc(-n5cncn5)c4)CC3)cc2)cc1OC | 0
5 | 7.35 | 6.48 | 5.90 | 0.7 | 61 | 0.4 | 0.55 | Not Determined(Insoluble) | 72 | – | – | – | COc1cc(NC(=O)c2cnc3ccccc3c2)c(C(=O)Nc2ccc(C3CCN(Cc4cccc(-n5ccnc5)c4)CC3)cc2)cc1OC | 1
6 | 6.92 | 6.35 | 5.79 | – | – | – | – | – | – | – | – | – | COc1cc(NC(=O)c2cc(=O)c3ccccc3o2)c(C(=O)Nc2ccc(N3CCN(Cc4cccc(-c5ccncc5)c4)CC3)cc2)cc1OC | 0
7 | 7.59 | 5.42 | 5.05 | – | – | – | – | – | – | – | – | – | COc1cc(NC(=O)c2cnc3ccccc3c2)c(C(=O)Nc2ccc(C3CCN(Cc4ccc5c(cnn5C)c4)CC3)cc2)cc1OC | 3
8 | 7.29 | 5.90 | 5.19 | – | – | – | – | – | – | – | – | – | COc1cc(NC(=O)c2cc(=O)c3ccccc3o2)c(C(=O)Nc2ccc(C3CCN(Cc4ccc5c(c4)OCO5)CC3)cc2)cc1OC | 1
9 | 7.37 | < 5.05 | – | – | – | – | – | – | – | – | – | – | COc1ccc(CN2CCC(c3ccc(NC(=O)c4cc(OC)c(OC)cc4NC(=O)c4cnc5ccccc5c4)cc3)CC2)cc1OC | 3
10 | 7.19 and 6.63 | 6.64 and 6.59 | 5.93 and 6.31 | – | – | – | – | – | – | – | – | – | COc1cc(NC(=O)c2cc(=O)c3ccccc3o2)c(C(=O)Nc2ccc(C3CCN(Cc4cccc(-c5cccnc5)c4)CC3)cc2)cc1OC | 0
11 | 7.26 | 6.55 | 5.96 | 1.8 | 51 | 2.36 | 1.29 | Not Determined(Insoluble) | 60 | – | – | – | COc1cc(NC(=O)c2cnc3ccccc3c2)c(C(=O)Nc2ccc(N3CCN(Cc4cccc(-c5cccnc5)c4)CC3)cc2)cc1OC | 0
12 | 7.40 | < 5.05 | – | – | – | – | – | – | – | – | – | – | COc1ccc(CN2CCC(c3ccc(NC(=O)c4cc(OC)c(OC)cc4NC(=O)c4cc(=O)c5ccccc5o4)cc3)CC2)cc1OC | 0
13 | 6.97 | 6.61 | 6.01 | – | – | – | – | – | – | – | – | – | COc1cc(NC(=O)c2cnc3ccccc3c2)c(C(=O)Nc2ccc(C3CCN(Cc4cccc(-c5cccnc5)c4)CC3)cc2)cc1OC | 0
14 | 6.73 | 5.95 | 5.49 | – | – | – | – | – | – | – | – | – | COc1cc(NC(=O)c2cnc3ccccc3c2)c(C(=O)Nc2ccc(C3CCN(Cc4cccc(-c5ccncc5)c4)CC3)cc2)cc1OC | 3
15 | 6.45 | 6.61 | 6.26 | – | – | – | – | – | – | – | – | – | COc1cc(NC(=O)c2cnc3ccccc3c2)c(C(=O)Nc2ccc(N3CCN(Cc4cccc(-n5cncn5)c4)CC3)cc2)cc1OC | 1
16 | 7.01 | 6.27 | 5.75 | – | – | – | – | – | – | – | – | – | COc1cc(NC(=O)c2cnc3ccccc3c2)c(C(=O)Nc2ccc(N3CCN(Cc4cccc(-c5ccncc5)c4)CC3)cc2)cc1OC | 2

Row | pEC50 [1] | pIC50 (Cytochrome P450 3A4 [2]) | pIC50 (Cytochrome P450 3A4 [3]) | efflux ratio [4] | recovery [5] [%] | Papp B→A [6] [×10⁻⁶ cm/s] | Papp A→B [7] [×10⁻⁶ cm/s] | solubility [8] | recovery [9] [%] | solubility thermodynamic ([8]; PBS) [µM] | Ratio [4] | Papp [6] | SMILES | Activity (MES-SA/Dx5) [%]
17 | 7.48 | 6.57 | 5.72 | 1.6 | 69 | 0.27 | 0.17 | – | 74 | 0.092 (≈ 0.0614 µg/mL) | – | – | COc1cc(NC(=O)c2cnc3ccccc3c2)c(C(=O)Nc2ccc(N3CCN(Cc4cccc(-n5ccnc5)c4)CC3)cc2)cc1OC | 0
18 | 6.81 | 6.18 | 5.76 | – | – | – | – | – | – | – | – | – | COc1cc(NC(=O)c2cnc3ccccc3c2)c(C(=O)Nc2ccc(C3CCN(Cc4cccc(-n5cncn5)c4)CC3)cc2)cc1OC | 1
19 | 7.68 | < 5.05 | – | – | – | – | – | – | – | – | – | – | COc1ccc(CN2CCN(c3ccc(NC(=O)c4cc(OC)c(OC)cc4NC(=O)c4cc(=O)c5ccccc5o4)cc3)CC2)cc1OC | 5
20 | 7.85 | 5.98 | 5.09 | – | – | – | – | – | – | – | – | – | COc1cc(NC(=O)c2cc(=O)c3ccccc3o2)c(C(=O)Nc2ccc(N3CCN(Cc4ccc5c(cnn5C)c4)CC3)cc2)cc1OC | 2
21 | 7.52 | 5.93 | 5.22 | – | – | – | – | – | – | – | – | – | COc1cc(NC(=O)c2cc(=O)c3ccccc3o2)c(C(=O)Nc2ccc(C3CCN(Cc4ccc5c(cnn5C)c4)CC3)cc2)cc1OC | 1
22 | 7.66 | 5.68 | 5.26 | – | 75 | – | – | – | 75 | – | 14 | 31.7 10^-6 cm/s | COc1cc(NC(=O)c2cnc3ccccc3c2)c(C(=O)Nc2ccc(N3CCN(Cc4ccc5c(c4)OCO5)CC3)cc2)cc1OC | 3
23 | 6.37 | < 5.05 | – | – | – | – | – | – | – | – | – | – | COc1ccc(CN2CCN(c3ccc(NC(=O)c4ccccc4NC(=O)c4cc(=O)c5ccccc5o4)cc3)CC2)cc1OC | 0
24 | 6.29 | 6.40 | 5.73 | – | – | – | – | – | – | – | – | – | O=C(Nc1ccccc1C(=O)Nc1ccc(N2CCN(Cc3cccc(-c4cccnc4)c3)CC2)cc1)c1cc(=O)c2ccccc2o1 | 2
25 | 6.78 and 6.67 | 6.82 and 6.67 | 5.90 and 5.94 | – | – | – | – | – | – | – | – | – | COc1cc(NC(=O)c2cc(=O)c3ccccc3o2)c(C(=O)Nc2ccc(C3CCN(Cc4cccc(-c5ccncc5)c4)CC3)cc2)cc1OC | 1
26 | 7.37 | 6.47 | 6.22 | – | 62 | < 0.08 | 0.06 | Not Determined(Insoluble) | 86 | – | – | – | COc1cc(NC(=O)c2cc(=O)c3ccccc3o2)c(C(=O)Nc2ccc(N3CCN(Cc4cccc(-c5cccnc5)c4)CC3)cc2)cc1OC | 0
27 | 7.41 | 5.49 | 5.05 | – | – | – | – | – | – | – | – | – | COc1cc(NC(=O)c2cnc3ccccc3c2)c(C(=O)Nc2ccc(C3CCN(Cc4ccc5c(c4)OCO5)CC3)cc2)cc1OC | 1
28 | 6.48 | 6.43 | 6.32 | – | – | – | – | – | – | – | – | – | COc1cc(NC(=O)c2cc(=O)c3ccccc3o2)c(C(=O)Nc2ccc(N3CCN(Cc4cccc(-n5cncn5)c4)CC3)cc2)cc1OC | 1
29 | 7.51 | 5.79 | 5.33 | – | – | – | – | – | – | – | – | – | COc1cc(NC(=O)c2cc(=O)c3ccccc3o2)c(C(=O)Nc2ccc(N3CCN(Cc4ccc5c(c4)OCO5)CC3)cc2)cc1OC | 4
30 | – | – | – | 12.2 | 56 | 12.1 | 0.98 | – | 68 | – | – | – | C[C@H]1O[C@@H](O[C@H]2[C@@H](O)C[C@H](O[C@H]3[C@@H](O)C[C@H](O[C@H]4CC[C@@]5(C)[C@H](CC[C@@H]6[C@@H]5C[C@@H](O)[C@]5(C)[C@@H](C7=CC(=O)OC7)CC[C@]65O)C4)O[C@@H]3C)O[C@@H]2C)C[C@H](O)[C@@H]1O [DIGOXIN] | –
31 | – | – | – | – | – | – | – | – | – | – | – | – | CC(=O)N1CCN(c2ccc(OCC3COC(Cn4ccnc4)(c4ccc(Cl)cc4Cl)O3)cc2)CC1 (centres undefined) [KETOCONAZOLE] | 39
